Experimental data from US20130197047A1, “OPHTHALMIC COMPOSITIONS OF PARASYMPATHETIC STIMULANTS AND ANTI-INFLAMMATORIES FOR USE IN THE TREATMENT OF PRESBYOPIA” (priority 2006, published 2013).
Structures can show the parent of a compound that is named as a salt.

Columns and labels:
Presbiopic patients = test: Topical eye-drop treatment of presbyopic patients (100 patients, 4 groups), follow-up of near and distant visual sharpness and tolerance; format: in vivo, human; details: of 100 patients treated
Experimental: 100 Presbiopic patients of both sexes, of age 40 to 65, were treated with the compositions of the invention. Exclusion criteria concerned patients with myopia or astigmatism higher than 1 dioptre, and hypermetropia greater than 3 dioptres as well as those with corneal, lens and vitreous opacitis, and chronic general pathologies. 4 Different groups of presbyopic population were differentiated: Group 1: Pure presbyopics Group 2: Presbyopics with hypermetropia Group 3: Presbyopics with phorias Group 4: Presbyopics with glaucoma Patients of all groups were treated with eye drops of different concentrations and combinations of medicaments acting on the ocular sympathetic innervation. Pure presbyopic patients (Group 1) were topically treated with 1% pilocarpine hydrochloride+0.5% diclofenac sodium, at 6 hr intervals during the daily hours; treatment was suspended at night. Presbyopics with hypermetropia (Group 2) were topically treated with 2% pilocarpine hydrochloride+0.5% diclofenac sodium, at 6 hr intervals during the daily hours. […] All patients were monitored after one week treatment and monthly during the first three months to evaluate dosage and side-effects. […]

presbyopic patient = details: does not solve blurred distant vision; cited from earlier work

CC[C@@H]1C(=O)OC[C@@H]1Cc1cncn1C [pilocarpine hydrochloride]
patients showed intolerance (diarrhoea and dyspepsia) (Presbiopic patients): 2 patients

CNC(=O)Oc1ccc2c(c1)[C@]1(C)CCN(C)[C@@H]1N2C [physostygmine]
result of topical application to presbyopic patient (presbyopic patient): poor results
